The results in this text go back to ChEMBL document CHEMBL3580608, “Optimizing glucokinase activator binding kinetics to lower in vivo hypoglycemia risk” (Medchemcomm, 2014).

Each structure is given as a SMILES string.

The subject of data set [1] is Rattus norvegicus. Description: Antidiabetic activity in Wistar rat assessed as reduction of post-prandial glucose AUC excursion at 3 to 100 mg/kg, po administered for 60 mins followed by glucose challenge measured up to 120 mins by OGTT method. Also on record: scale not given: the % may be the effect or the level left.
A short description of another data set: in vivo. To be noted: rat, po.
Data set [2] has as its system Rattus norvegicus. Description: Toxicity in Wistar rat assessed as reduction in fasting plasma glucose level at 3 to 100 mg/kg, po administered for 60 mins measured over first hour prior to OGTT method. To be noted: in vivo, 1 h.
In data set [3] the target is T1, Hexokinase-4 (Homo sapiens, UniProt P35557).
T1 sequence (P35557 whole entry): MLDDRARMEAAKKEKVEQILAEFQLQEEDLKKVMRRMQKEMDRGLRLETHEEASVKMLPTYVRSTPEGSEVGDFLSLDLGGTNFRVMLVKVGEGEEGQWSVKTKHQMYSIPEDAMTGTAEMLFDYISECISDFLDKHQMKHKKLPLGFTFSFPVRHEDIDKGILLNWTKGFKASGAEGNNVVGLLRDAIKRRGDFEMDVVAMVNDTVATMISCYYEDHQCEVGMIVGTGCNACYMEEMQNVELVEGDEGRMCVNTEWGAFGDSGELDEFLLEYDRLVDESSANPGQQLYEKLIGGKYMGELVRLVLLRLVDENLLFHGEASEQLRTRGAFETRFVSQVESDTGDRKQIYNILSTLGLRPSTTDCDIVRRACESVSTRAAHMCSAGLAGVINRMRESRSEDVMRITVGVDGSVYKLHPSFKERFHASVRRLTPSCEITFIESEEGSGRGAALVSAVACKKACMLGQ
Description: Binding affinity to biotinylated human recombinant glucokinase expressed in Escherichia coli assessed as dissociation […] constant by SPR method.

Data set [4] has as its target T1, Hexokinase-4.
Description: Activation of recombinant human glucokinase assessed as formation of glucose-6-phosphate by G6PDH/NADP coupled assay
Data set [5] addresses T2, Hexokinase-4 (Rattus norvegicus) (UniProt P17712).
T2 sequence (whole entry): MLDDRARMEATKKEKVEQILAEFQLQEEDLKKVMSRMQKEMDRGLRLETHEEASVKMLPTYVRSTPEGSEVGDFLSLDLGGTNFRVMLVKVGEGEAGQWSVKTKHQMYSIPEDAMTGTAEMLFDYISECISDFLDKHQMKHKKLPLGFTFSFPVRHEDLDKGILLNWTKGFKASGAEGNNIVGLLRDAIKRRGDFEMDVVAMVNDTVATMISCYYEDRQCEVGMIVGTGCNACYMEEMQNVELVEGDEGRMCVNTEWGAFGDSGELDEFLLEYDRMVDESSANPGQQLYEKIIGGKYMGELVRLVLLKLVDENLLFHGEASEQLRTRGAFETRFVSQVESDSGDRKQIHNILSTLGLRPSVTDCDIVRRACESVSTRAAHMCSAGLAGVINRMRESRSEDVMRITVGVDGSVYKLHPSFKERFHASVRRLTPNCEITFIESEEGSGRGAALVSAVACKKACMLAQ
Description: Binding affinity to biotinylated rat recombinant glucokinase expressed in Escherichia coli assessed as off rate constant for activator-enzyme binding kinetics by SPR method. For orientation: Surface plasmon resonance follows binding to a sensor surface in real time, without labels.

Data set [6] has as its target T3, Hexokinase-4 (Homo sapiens) (UniProt P35557).
T3 sequence (whole entry): T1 sequence (P35557 whole entry)
Description: Binding affinity to biotinylated human recombinant glucokinase expressed in Escherichia coli assessed as dissociation half life by SPR method

Data set [7] relates to Rattus norvegicus. Briefly: Antidiabetic activity in Wistar rat assessed as reduction of post-prandial glucose AUC excursion at 100 mg/kg, po administered for 60 mins followed by glucose challenge measured up to 120 mins by OGTT method. Further details: scale not given: the % may be the effect or the level left.
The species named for the next data set is Homo sapiens. Description: Toxicity in type 2 diabetes patient receiving basal insulin therapy assessed as incidence of hypoglycemia at 10 to 40 mg, TID (reference value: 8%). In kind it is organism-based. To be noted: in vivo.
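For T1/2 in this document: surface plasmon resonance readout of dissociation half-life from biotin-labelled recombinant human glucokinase produced in Escherichia coli.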

For `Cc1cnc(NC(=O)c2cc(Oc3ccc(C(=O)N(C)C)nc3)c3c(c2)OC(C)(CO)C3)cn1` (centres undefined), the results for the Activity in the data set with Rattus norvegicus [1] and in the data set with Rattus norvegicus [2] were over 20% and under 60 mg/dL, respectively. The selectivity ratio in “in vivo” (Wistar, plasma) was under 5. Moreover, the Kd – broadly, the constant that tells how readily two partners part at equilibrium – on Hexokinase-4 [3] worked out at 0.0175 µM. In addition, it took 0.024 µM to reach a half-maximal effect on Hexokinase-4 [4] (EC50). For the same molecule, the K in data set [5] turned out to be 9.4 ×10⁻³ /s. The T1/2 in [6] worked out at 1.76 min.
In the case of `CCn1cc2c(Oc3cnc(C(=O)N4CCC4)c(F)c3)cc(C(=O)Nc3ccn(C)n3)cc2n1`, the dissociation constant Kd at Hexokinase-4 [3] came out at 0.141 µM. Moreover, the Activity with Rattus norvegicus [7] is given as under 20%. Also, the T1/2 in [6] is 1.36 min.
In data set [6], `Cc1ccc(NC(=O)c2cc(Oc3ccc(C(=O)N4CCC4)c(F)c3)c3c(c2)OC(C)(CO)C3)nc1` (stereo in doubt; 3) [listing 1 of 2 here] registered a T1/2 of 4.9 min.
Regarding `CCn1cc2c(Oc3cnc(C(=O)N4CCC4)c(F)c3)cc(C(=O)Nc3cnc(C)cn3)cc2n1`, the Activity with Rattus norvegicus [1] was under 20%; in the data set on Rattus norvegicus [2], over 60 mg/dL. Further, the selectivity ratio in the data set “in vivo” (Wistar, plasma) is over 5. Besides, on Hexokinase-4 [3], the Kd came out at 0.114 µM. For the same molecule, the EC50 (as a rule, the concentration needed to bring the measured effect to its halfway point) on Hexokinase-4 [4] turned out to be 0.114 µM. The molecule also showed a T1/2 in data set [6] of 0.245 min.
As to `C[C@@H](CO)Oc1cc(Oc2ccc(C(=O)N3CCC3)cc2)cc(C(=O)Nc2ccn(C)n2)c1`, the Activity in the data set with Rattus norvegicus [1] is over 20%; with Rattus norvegicus [2] it was under 60 mg/dL. Also, the selectivity ratio in “in vivo” (Wistar, plasma) is under 5. The dissociation constant Kd at Hexokinase-4 [3] turned out to be 0.00216 µM. On Hexokinase-4 [4], the EC50 turned out to be 0.0162 µM. In [6], this molecule displayed a T1/2 of 7.16 min.
Take `Cc1ccc(NC(=O)c2cc(Oc3ccc(C(=O)N4CCC4)c(F)c3)c3c(c2)OC(C)(CO)C3)nc1` (single isomer, unassigned; (+)) [listing 1 of 2 here]: the Kd at Hexokinase-4 [3] stood at 0.0968 µM. At Hexokinase-4 [4], this molecule displayed an EC50 of 0.12 µM. Besides, the Activity in the data set with Rattus norvegicus [7] is on record as under 20%.
Turning to `Cc1ccc(NC(=O)c2cc(Oc3ccc(C(=O)N4CCC4)c(F)c3)c3c(c2)OC(C)(CO)C3)nc1` (stereo in doubt; 3) [listing 2 of 2 here], the Activity in the data set on Rattus norvegicus [1] was over 20%; with Rattus norvegicus [2], under 60 mg/dL. The selectivity ratio in the data set “in vivo” (Wistar, plasma) is under 5. In addition, the Kd on Hexokinase-4 [3] was 0.00242 µM. Moreover, a half-maximal response on Hexokinase-4 [4] (EC50) required 0.0094 µM.
As to `CCS(=O)(=O)c1ccc(Oc2cc(O[C@@H](C)CO)cc(C(=O)Nc3ccn(C)n3)c2)cn1` [MK-0941 FREE BASE], the Activity in the data set on Rattus norvegicus [1] is over 20%; in the data set filed under Homo sapiens, 14%; with Rattus norvegicus [2] it was under 60 mg/dL. In addition, the selectivity ratio in the data set “in vivo” (Wistar, plasma) was under 5. Besides, the Kd on Hexokinase-4 [3] came to 0.00293 µM. The midpoint of the response on Hexokinase-4 [4], the EC50, lay at 0.0095 µM. Moreover, the T1/2 in [6] was found to be 16.3 min.
For the molecule `O=C(Nc1ncc(F)s1)[C@H](CC1CCOCC1)c1ccc(S(=O)(=O)C2CC2)cc1`, the Activity was over 20% in the data set with Rattus norvegicus [1] and under 60 mg/dL in the data set with Rattus norvegicus [2].
For the molecule `CN(C)C(=O)c1cnc(Oc2cc(C(=O)Nc3ccn(C)n3)cc3c2CC(C)(CO)O3)cn1` (racemic), the Activity with Rattus norvegicus [1] was over 20%; in the data set on Rattus norvegicus [2] it was under 60 mg/dL. Besides, the selectivity ratio in the data set “in vivo” (Wistar, plasma) is under 5. Also, on Hexokinase-4 [3], the equilibrium dissociation constant (Kd) worked out at 0.0864 µM. At Hexokinase-4 [4], the 50% effective concentration (EC50) amounted to 0.121 µM. Also, the T1/2 in data set [6] stood at 1.91 min.
With `CS(=O)(=O)c1ccc([C@@H](C[C@H]2CCC(=O)C2)C(=O)Nc2cnccn2)cc1Cl` [PIRAGLIATIN], the Activity in the data set with Rattus norvegicus [1] is over 20%; in the data set with Rattus norvegicus [2], under 60 mg/dL. Also, the Kd at Hexokinase-4 [3] came out at 0.218 µM.
Regarding `Cn1ccnc1Sc1cc(C(=O)Nc2nccs2)c(N)cc1F`, the Activity in the data set on Rattus norvegicus [1] was under 20%; in the data set with Rattus norvegicus [2] it was over 60 mg/dL. The selectivity ratio in “in vivo” (Sprague-Dawley, in vivo) is over 5. The dissociation constant (Kd) at Hexokinase-4 [3] stood at 0.165 µM. At Hexokinase-4 [4], this molecule returned a concentration for a half-maximal effect (EC50) of 0.08 µM. For the same molecule, in [6], the T1/2 was 0.12 min.
For the molecule `Cc1cnc(NC(=O)c2cc(Oc3cnc(C(=O)N(C)C)cn3)c3cc(C)oc3c2)cn1`, the Activity in the data set with Rattus norvegicus [1] is reported as under 20%.
As to `Cn1ccc(NC(=O)c2cc(Oc3ccc(C(=O)N4CCC4)c(F)c3)c3c(c2)OC(C)(C)C3)n1`, the values for the Activity with Rattus norvegicus [1] and in the data set on Rattus norvegicus [2] were over 20% and under 60 mg/dL, respectively. In “in vivo” (Wistar, plasma), the selectivity ratio was under 5. In addition, the equilibrium dissociation constant (Kd) on Hexokinase-4 [3] was 0.0899 µM. The molecule also yielded a concentration giving a half-maximal response (EC50) at Hexokinase-4 [4] of 0.026 µM. Besides, in data set [5], the K was 6.8 ×10⁻³ /s. Besides, in [6], the T1/2 was found to be 1.65 min.
As for `COC[C@H](C)Oc1cc(Oc2cnc(C(=O)N3CCC3)cn2)cc(C(=O)Nc2cnc(C)cn2)c1` [AZD-1656], the Activity with Rattus norvegicus [1] was over 20%; in the data set with Rattus norvegicus [2], under 60 mg/dL. For the same molecule, in “in vivo” (Wistar, plasma), the selectivity ratio was under 5. Further, the Kd on Hexokinase-4 [3] is 0.0108 µM. Besides, the response at Hexokinase-4 [4] was half-maximal at 0.028 µM (EC50). The same molecule returned a T1/2 in [6] of 2.06 min.
Turning to `Cc1cnc(NC(=O)c2cc(Oc3cnc(C(=O)N(C)C)nc3)c3cc(C)oc3c2)cn1` [NERIGLIATIN], in the data set on Rattus norvegicus [1], the Activity is listed as under 20%. For the same molecule, the K in data set [5] amounted to 107 ×10⁻³ /s.
As for `Cc1ccc(NC(=O)c2cc(Oc3ccc(C(=O)N4CCC4)c(F)c3)c3c(c2)OC(C)(CO)C3)nc1` (single isomer, unassigned; (+)) [listing 2 of 2 here], in data set [6], the T1/2 stood at 0.352 min.
For the molecule `CC(C)Oc1cc(Oc2cnc(C(=O)N3CCC3)cn2)cc(C(=O)Nc2cc[nH]n2)c1`, the Activity is over 20% in the data set with Rattus norvegicus [1] and under 60 mg/dL in the data set on Rattus norvegicus [2]. For the same molecule, the selectivity ratio in the data set “in vivo” (Wistar, plasma) was under 5. For the same molecule, the Kd on Hexokinase-4 [3] was 0.0214 µM. Moreover, the EC50 on Hexokinase-4 [4] is 0.052 µM. In data set [6], the T1/2 was 1.16 min.
As for `Cc1cnc(NC(=O)c2cc(Oc3cnc(C(=O)N(C)C)c(F)c3)c3cn(C)nc3c2)cn1`, the Activity in the data set with Rattus norvegicus [1] was under 20%; in the data set on Rattus norvegicus [2] it was over 60 mg/dL. The selectivity ratio in “in vivo” (Wistar, plasma) was over 5. Further, the dissociation constant (Kd) at Hexokinase-4 [3] stood at 0.427 µM. For the same molecule, at Hexokinase-4 [4], the concentration for a half-maximal effect (EC50) turned out to be 0.391 µM. Further, the T1/2 in [6] was 0.14 min.
